Laboratory results: a melting point compilation (Tetko et al.; mined from patent text by program, amines drawn as free bases though some values may be those of a salt)

`O=C(O)c1cc([N+](=O)[O-])cc2c1Nc1cc(-c3ccccc3)ccc1O2` gave a melting point of over 250 °C. In the case of `C#CCc1c(C)nc2c(NCc3c(C)cccc3NC(=O)OC)cccn12`, the melting point is reported as 149 to 150 °C. With `O=C1NC(=O)C(=Cc2ccc3c(c2)CCC(Cc2ccc(OCc4ccccc4)cc2)O3)S1` (stereo not drawn) the melting point was 245 to 250 °C. In the case of `CC(NC(=O)C1CC(=O)c2cc(F)ccc2O1)c1ccccc1` (single isomer, unassigned; (+)), the melting point is reported as 140 °C. With `C[C@@H]1CN(C(=O)[C@@](C)(O)C(F)(F)F)[C@@H](C)CN1S(=O)(=O)c1ccc(F)cc1` the melting point was 174 to 175 °C. Work on `CC1=C(C(=O)OCCN(C)Cc2ccccc2)C(c2cccc([N+](=O)[O-])c2)C(P(=O)(OC(C)C)OC(C)C)=C(C)N1` (stereo not drawn) yielded a melting point of 113 to 115 °C. `CC(CCCN(C)C)C1CC(=O)C2=C3CCC4CC(O)CCC4(C)C3CCC21C` (stereo not drawn) gave a melting point of 160 to 162 °C. Compound `CC(=O)N1CCC(n2cc(C3=C(c4cn(C)c5ccccc45)C(=O)NC3=O)c3ccccc32)CC1` has a melting point of over 293 °C. `CN(Cc1ccco1)C1=N/C(=C\c2c[nH]c3ncc(Cl)cc23)C(=O)N1` showed a melting point of 315 °C. With `CCOC(=O)c1cc2c(=O)n(CC)c3ccccc3n2c1` the melting point was 184 to 186 °C. `CCCC1(S(=O)(=O)CCC(=O)OC)c2ccccc2-c2ccccc21` showed a melting point of 74 to 77 °C. With `COC(=O)C1=C(C)NC(C)=C(C(=O)OC)N1c1cccc(N)c1` the melting point was 212 to 213 °C. With `O=C1C(=O)c2c(nc3cc(Cl)ccn23)-c2ccccc21` the melting point was over 300 °C. In the case of `COC[C@@H]1CCCN1S(=O)(=O)c1ccc2c(c1)C(=O)C1=NCC(C)(C)CN12`, the melting point is reported as 161 to 164 °C. Compound `CC(C)N(CCNc1ccc([N+](=O)[O-])c2ccccc12)C(C)C` has a melting point of 63 to 64 °C. Compound `CC(C)(C)N1C(=O)c2cnc(-c3ccccc3)nc2N(C(=O)CCl)c2ccccc21` has a melting point of 176 to 177 °C. For `COc1ccc(-c2cc(Cl)cc3c2N(C)C(CN)CO3)c(C)c1` (stereo not drawn), the melting point was 106 °C. `CC1Cc2ccc(Br)cc2C(c2ccc([N+](=O)[O-])cc2)=NN1C(=O)C(F)(F)F` (stereo not drawn) gave a melting point of 193 to 196 °C. `C#CCOc1cc(N=C(C=NOC)N2CCCC2)c(F)cc1Cl` gave a melting point of 73 to 75 °C. In the case of `c1cc2c(Nc3ccc4[nH]ncc4c3)ncnc2cn1`, the melting point is reported as 258 °C. `CCOP(=O)(OCC)C(c1ccccc1)c1ccccc1C(F)(F)F` (stereo not drawn) gave a melting point of 127 to 130 °C. In the case of `CC1CCNC(=C2C(=O)CC(C)(C)CC2=O)N1` (stereo not drawn), the melting point is reported as 164 to 165 °C. Work on `CCNCc1ccc(O)c(C(CCN(C(C)C)C(C)C)c2ccccc2)c1` (stereo not drawn) yielded a melting point of 140 to 142 °C. For `O=[N+]([O-])c1ccc(CSc2ncnc3nc[nH]c23)cc1`, the melting point was 239 °C. For `CCc1cc(=O)c2cc(C(C)CO)ccc2o1` (stereo not drawn), the melting point was 59.5 to 60.5 °C. For `COC(=O)c1cccc(NC(=O)c2ccc(OC)c(N)c2)c1`, the melting point was 160 to 162 °C. Compound `COc1ccc2c(N3CCCNCC3)noc2c1` has a melting point of 74 to 75 °C. For `Cc1nc(C)c2c(n1)CN=C(c1ccccc1)c1cc(Cl)ccc1-2`, the melting point was 121 to 124 °C. In the case of `COC(=O)c1ccc(-c2ccc(OC)c(OC)c2)cc1OC`, the melting point is reported as 96 to 97.5 °C. `CC(O)CNc1ccc(NC(=O)n2ccc3cc(Oc4cc(CC(N)=O)ncn4)ccc32)cc1C(F)(F)F` (stereo not drawn) gave a melting point of 226 to 230 °C. With `c1ccc(C(CC2=NCCN2)c2ccccc2)cc1` the melting point was 173 to 175 °C. Compound `O=C(O)COc1ccc(SCc2cc(-c3ccc(Cl)cc3)on2)c2c1CCCO2` has a melting point of 131 to 133 °C. `COc1ccc(CN(CCN(C)CCCN=C(NC#N)NCCSCc2csc(NC(=N)N)n2)c2ccccn2)cc1` showed a melting point of 54 °C. In the case of `C=C(CN(C)C)C(O)c1ncc2c(c1O)COC2c1ccc(OC)cc1` (stereo not drawn), the melting point is reported as 169 to 170 °C. Work on `Cc1cc(-c2ccc(C(F)(F)F)cc2)cn2c(-c3nc(-c4cnc(N)nc4)no3)cnc12` yielded a melting point of 302 °C. For `Cc1cccc(-c2nc(C(C)(C)C)n(C)n2)n1`, the melting point was 106 °C. Work on `Nc1ccc2ccc(O)cc2c1` yielded a melting point of 186 to 188 °C. `O=C(Cc1ccc(C(=O)O)cc1)Nc1cccc(/C=C/c2nc(C3CCC3)cs2)c1` showed a melting point of 262 to 263 °C. `CS(=O)(=O)Cc1cnc2ccccc2c1Cl` showed a melting point of 202 to 204 °C. Compound `COC(=O)[C@@]12CN(Cc3ccccc3)C[C@@H]1[C@@](O)(c1ccc(OC)cc1)CC[C@H]2c1ccccc1` (racemic) has a melting point of 136 °C. Work on `CCOC(=O)C(CC=C(C)C=CC1=C(C)CCCC1(C)C)C(C)=O` (stereo not drawn) yielded a melting point of 152 °C. In the case of `O=C1c2ccccc2C(=O)N1CCCCCSc1ccccc1`, the melting point is reported as 87 to 88 °C. Work on `COc1cn(C(C)c2ccccc2)c(=O)o1` (stereo not drawn) yielded a melting point of 49 to 52 °C. `O=C(NC1CCCCC1)NC1N=C(c2ccccc2F)c2ccccc2N(CC(=O)N2CC3CCC(CC3)C2)C1=O` (racemic) showed a melting point of 128 to 130 °C. For `CCCc1nc(-n2cccc2)c(CO)[nH]1`, the melting point was 155 to 158 °C. `COC(=O)CC(C)C(=O)c1ccc(O)cc1` (stereo not drawn) showed a melting point of 89 to 91 °C. For `Cc1cc2c(cc1C1=NNC(=O)CC1)NC(=O)C(C)O2` (stereo not drawn), the melting point was 252 to 254 °C. `CC(C)(C)OC(=O)NC1CCCCc2cc(OCC3CCCCC3)c(C(=O)O)cc21` (stereo not drawn) showed a melting point of 159 to 160 °C. `CCOCc1nc2c(N)nc3c(c2n1CCCCS(=O)(=O)NC)CCCC3` gave a melting point of 188 to 192 °C. For `CCS(=O)(=O)N[C@H](C(=O)NCCc1ccc(OCCOc2ccc(F)cc2)c(OC)c1)C(C)C`, the melting point was 124 to 125 °C. With `COc1ccc2c(c1OC)CCCC2c1c[nH]cn1` (stereo not drawn) the melting point was 160 °C. In the case of `CCOC(=O)/C=C/c1cn(-c2ccc(C(F)(F)F)cc2)nc1OCc1ccc(OCc2nc(-c3ccccc3)oc2C)c(OC)c1`, the melting point is reported as 205 to 206 °C. `COC(=O)C1=C(C)NC(CCn2ccnc2)=C(C(=O)OC)C1c1cccc(Cl)c1Cl` (stereo not drawn) showed a melting point of 180 to 182 °C. Compound `N#Cc1ncn2c1N(C(=O)CN1CCC(c3ccccc3)CC1)CC=C2c1cccc(C(F)(F)F)c1` has a melting point of 174 to 175 °C. In the case of `O=C(CN1C(=O)c2ccccc2S1(=O)=O)Nc1ccccc1`, the melting point is reported as 180 to 182 °C. `Cc1ccc(CN2C(=O)C3(COc4cc5c(cc43)OCO5)c3ccccc32)o1` (stereo not drawn) gave a melting point of 117 to 119 °C. Work on `Nc1ccc2ccccc2c1-c1c(O)ccc2ccccc12` yielded a melting point of 236 to 237 °C. In the case of `N#CC(=Cc1cccnc1)c1cc(Cl)cc(Cl)c1`, the melting point is reported as 139 to 141 °C. Compound `CCOC(=O)C1CNc2cc([N+](=O)[O-])ccc2O1` (stereo not drawn) has a melting point of 88 to 90 °C. In the case of `CN(C)c1cccc(CSC2NC(=S)NC2(C)C)c1` (stereo not drawn), the melting point is reported as 178 to 179 °C. Compound `CCCCCCCCCCCCCCCCCNC(=O)O[C@@H]1CCO[C@H]1CO` (relative stereo) has a melting point of 77 to 78 °C. `COC(=O)c1cccc2c1OCO2` showed a melting point of 55 to 57 °C. `CCc1cc(NC(=O)c2nnnn2Cc2ccc(OC)cc2)c(O)c(C(C)=O)c1` gave a melting point of 140 to 142 °C. With `Cc1cc(-c2cccc3c2C(=O)OC(C)(C)O3)on1` the melting point was 74 °C. With `CN1C(=O)C(NC(=O)c2cc3cc(O)ccc3[nH]2)N=C(c2ccccc2)c2ccccc21` (stereo not drawn) the melting point was 120 to 130 °C. Compound `CC(=O)C(C)N(C(=O)CCl)c1c(C)cccc1C` (stereo not drawn) has a melting point of 78 to 82 °C. For `CCNC(=O)c1cc(Br)sc1[Si](C)(C)C`, the melting point was 96 to 98 °C. Work on `CC(=O)NNc1ccc(Cl)c(Cl)c1` yielded a melting point of 179 to 182 °C. For `O=c1cc[nH]n1-c1c(Cl)cc(C(F)(F)F)cc1Cl`, the melting point was 228 °C. Compound `Cc1nc2c(C=O)cccn2c1Br` has a melting point of 137 to 139 °C. With `CCC1(C)C(=O)c2c(Cl)cc(C)c(C)c2C1=O` (stereo not drawn) the melting point was 97 °C. Work on `C[Si](C)(C)c1ccc(NC(=O)NC(=O)c2c(F)cccc2F)cc1` yielded a melting point of 187 to 189 °C. `Cc1nc(SCc2ccc(Cl)cc2)nc2c1CCCC2` gave a melting point of 48 °C. In the case of `OCCOc1ccc(O)c(Cl)c1`, the melting point is reported as 76 to 82 °C. Compound `O=C(O)c1cccc(-c2cccc3oc(Cc4cccc(C(F)(F)F)c4)nc23)c1` has a melting point of 165 to 166 °C. For `CC(C)c1ccccc1-n1c(=O)[nH]c2c(C(N)=O)nc(-c3cccc(O)c3)nc21`, the melting point was 322 to 324 °C. Work on `c1ccc(N2CCN3C(NN4CCOCC4)=Nc4ccccc4N3CC2)cc1` yielded a melting point of 142 to 144 °C. Work on `Cc1noc([C@@H](Cc2ccccc2)NC(=O)[C@@H](Cc2ccc3ccccc3c2)NC(=O)[C@@H]2CCCN(C(=O)OC(C)(C)C)C2)n1` yielded a melting point of 198 to 200 °C. With `COC(=O)CCCC#Cc1cc(Cl)ccc1NS(=O)(=O)c1ccc2c(c1)CCC(=O)N2` the melting point was 53 to 57 °C. With `COC(=O)Nc1cccc(C)c1CNc1cc(C(=O)N(C)C)cc2c1nc(C)n2C` the melting point was 193 to 195 °C. `Cc1cc2c(cc1N(Cc1ccccc1)Cc1ccccc1)OC(=O)C2C` (stereo not drawn) gave a melting point of 122 to 123 °C. Compound `CCc1cccc(C)c1NC(=O)CCBr` has a melting point of 149 to 150 °C. Compound `CCOC(=O)C1Oc2ccccc2Cc2ccccc2O1` has a melting point of 86.5 to 88.5 °C. For `CCC[C@H]1CC[C@H](c2ccc(CCc3ccc(C#N)cc3)cc2)CC1`, the melting point was 36 °C. Work on `CCCC1(C(=O)NCc2ccc(N3Cc4ccccc4C3=O)cc2)c2ccccc2-c2ccccc21` yielded a melting point of 96 to 99 °C. Work on `Cc1cc([C@@H](O)[C@@H](C)N2CCC(O)(c3ccc(C(F)(F)F)cc3)CC2)cc(C)c1O[Si](C(C)C)(C(C)C)C(C)C` (relative stereo) yielded a melting point of 177 to 178 °C. In the case of `O=C(O)COC1=C(Cc2ccc3ccccc3c2)C(=O)CCC1`, the melting point is reported as 170 to 171 °C. With `CCCc1c(C#N)ccc(NC(=NC#N)Nc2ccccc2Cl)c1O` the melting point was 159 to 160 °C. Compound `CN(C)S(=O)(=O)Oc1cc(-n2c(=O)cc(C(F)(F)F)n(C)c2=O)c(F)cc1Cl` has a melting point of 118 to 120 °C. Compound `CCn1cc(C(=O)O)c(=O)c2cc(F)c(N3CCN(c4ncccn4)C(C)C3)c(OC(F)F)c21` (stereo not drawn) has a melting point of 219 to 221 °C. Work on `C[C@]1(COc2ccc(N3CCC(COCc4ccc(C(F)(F)F)cc4)CC3)cc2)Cn2cc([N+](=O)[O-])nc2O1` yielded a melting point of 172 to 173 °C. With `COc1cc(OC)nc(NC(=O)NS(=O)(=O)c2c(C(=O)C3CC3)cnn2C)n1` the melting point was 189 to 192 °C. In the case of `Cc1ccc2[nH]c(=O)n(CCCN3CCC(C(=O)c4ccc(F)cc4)CC3)c2c1`, the melting point is reported as 150 °C. `CN1Cc2c(I)ncn2-c2cccc(Br)c2C1=O` showed a melting point of 203 to 204 °C. In the case of `CN1CCC(Oc2ccc([N+](=O)[O-])cc2)(c2ccccc2)CC1`, the melting point is reported as 136 to 138 °C. For `Cc1ccnc(NC(=O)c2c(-c3ccc(F)cc3)c(-c3ccc(F)cc3)c(C=O)n2C(C)C)n1`, the melting point was 173 to 175 °C. Compound `CC1=C(C)N(C(=O)Oc2ccccc2)C(c2ccc(C)cc2)C=C1` (stereo not drawn) has a melting point of 106 °C. For `O=C(CC(O)c1ccccc1)NCc1ccccc1[N+](=O)[O-]` (stereo not drawn), the melting point was 145 °C.
